# pKi: −log10 of the molar value.
# What was measured:
# human CB2 receptor = human CB2 receptor (Homo sapiens, UniProt P34972); test: Affinity to the cannabinoid receptor CB2, displacement of [3H]-CP 55,940; conditions: for Inhibition CB2 10 μM, % inhibition: membranes of HEK 293EBNA cells with human CB2 receptor; for inhibition at 10 µM: read-out: Inhibition CB2 10 μM, % inhibition; for pKi: CB2, Cheng Prusoff correction of IC50
# 5-HT transporter = target: T1, 5-HT transporter (Rattus norvegicus, UniProt P31652); test: Inhibition of 5-HT uptake in synaptosomes; type: biochemical; conditions: for inhibition at 1 µM: read-out: Uptake_5-HT, rat, 1 μM, % inhibition
# T1 construct: from tissue; host or cells: rat brain synaptosomes (marrow/medulla and pons), P2 fraction
# T1 sequence (P31652 whole entry): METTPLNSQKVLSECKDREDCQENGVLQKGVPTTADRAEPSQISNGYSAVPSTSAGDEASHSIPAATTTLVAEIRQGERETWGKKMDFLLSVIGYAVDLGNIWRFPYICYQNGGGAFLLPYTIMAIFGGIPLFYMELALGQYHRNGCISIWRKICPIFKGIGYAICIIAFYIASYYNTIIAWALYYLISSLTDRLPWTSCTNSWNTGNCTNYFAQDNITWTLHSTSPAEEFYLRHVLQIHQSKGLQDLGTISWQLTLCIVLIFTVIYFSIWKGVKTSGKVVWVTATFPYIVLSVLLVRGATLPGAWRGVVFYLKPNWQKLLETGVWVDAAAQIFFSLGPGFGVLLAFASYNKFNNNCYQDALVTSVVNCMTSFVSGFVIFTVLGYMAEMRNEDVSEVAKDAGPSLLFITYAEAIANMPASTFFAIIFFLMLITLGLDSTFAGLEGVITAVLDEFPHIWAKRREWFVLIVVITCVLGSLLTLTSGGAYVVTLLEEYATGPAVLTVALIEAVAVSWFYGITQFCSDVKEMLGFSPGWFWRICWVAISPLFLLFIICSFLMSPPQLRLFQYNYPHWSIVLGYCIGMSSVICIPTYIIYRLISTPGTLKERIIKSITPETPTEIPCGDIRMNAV
# [1] = test system: batrachotoxin (BTX) binding site of the sodium channel; test: Affinity to the batrachotoxin (BTX) binding site of the sodium channel; conditions: rat cerebrocortex synaptosomes, [3H]-batrachotoxinin A20 α-benzoate 10 nM; test concentration not given
# NA transporter = test: Inhibition of noradrenalin uptake in synaptosomes; type: biochemical
# Chain of human CB2 receptor (P34972 whole entry): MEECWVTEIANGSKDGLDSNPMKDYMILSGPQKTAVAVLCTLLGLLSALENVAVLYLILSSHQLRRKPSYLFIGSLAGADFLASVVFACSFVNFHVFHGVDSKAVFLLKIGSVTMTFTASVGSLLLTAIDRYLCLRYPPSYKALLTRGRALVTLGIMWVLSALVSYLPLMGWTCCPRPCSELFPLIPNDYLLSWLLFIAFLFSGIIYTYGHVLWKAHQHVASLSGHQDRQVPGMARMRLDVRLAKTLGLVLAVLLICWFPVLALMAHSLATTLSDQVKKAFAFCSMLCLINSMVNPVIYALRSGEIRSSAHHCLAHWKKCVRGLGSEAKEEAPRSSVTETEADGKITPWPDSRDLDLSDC
inhibition at 10 µM (human CB2 receptor) [%],Compound,"Inhibition CB2 10 μM, % inhibition (human CB2 receptor) [%]","Uptake_5-HT, rat, 1 μM, % inhibition (5-HT transporter) [%]",BTX Inhibition [1],inhibition at 1 µM (5-HT transporter) [%],pKi (human CB2 receptor),"Uptake (NA), rat, 10 μM, % inhibition (NA transporter) [%]"
–,"COc1cc(C)c(S(=O)(=O)N2CCC3(CC2)NC(Cc2ccccc2)C(=O)N3Cc2ccccc2)c(C)c1C (stereo not shown) [Example 31, 1,3-Dibenzyl-8-(4-methoxy-2,3,6-trimethylbenzolsulfonyl)-1,4,8-triazaspiro[4,5]decan-2-one]",57,67,82,–,–,–
–,"CCCCOc1ccc(S(=O)(=O)N2CCC3(CC2)NC(Cc2ccccc2)C(=O)N3CC(=O)OCC)cc1 (stereo not shown) [Example 73, Ethyl[3-benzyl-8-(4-butoxy-benzolsulfonyl)-2-oxo-1,4,8-triazaspiro[4,5]dec-1-yl]-acetate]",46,80,52,–,–,–
–,"CC(C)C1NC2(CCN(S(=O)(=O)c3ccccc3Cl)CC2)NC1=O (stereo not shown) [Example 8, 8-(2-Chlorobenzolsulfonyl)-3-isopropyl-1,4,8-triazaspiro[4,5]decan-2-one]",41,55,–,–,–,–
–,"8-Benzolsulfonyl-1,3-dibenzyl-1,4,8-triazaspiro[4,5]decan-2-one [Example 247]",72,–,–,–,5.40,–
–,"CCCCN1C(=O)C(C(C)C)NC12CCN(C(=O)Nc1cccc(C(=O)OCC)c1)CC2 (stereo not shown) [Example 215, Ethyl 3-[(1-butyl-3-isopropyl-2-oxo-1,4,8-triazaspiro[4,5]decan-8-carbonyl)amino]-benzoate]",–,–,51,29,–,33
–,"CCOC(=O)CN1C(=O)C(Cc2ccccc2)NC12CCN(S(=O)(=O)Cc1ccccc1)CC2 (stereo not shown) [Example 68, Ethyl(3-benzyl-2-oxo-8-benzolmethansulfonyl-1,4,8-triazaspiro[4,5]dec-1-yl)acetate]",–,69,47,–,–,31
–,"CCOC(=O)CN1C(=O)C(Cc2ccccc2)NC12CCN(C(=O)NCc1ccc(Cl)c(Cl)c1)CC2 (stereo not shown) [Example 225, Ethyl[3-benzyl-8-(3,4-dichlorobenzylcarbamoyl)-2-oxo-1,4,8-triazaspiro[4,5]dec-1-yl]-acetate]",–,–,77,43,–,33
–,"CCOC(=O)CN1C(=O)C(Cc2ccccc2)NC12CCN(S(=O)(=O)c1cc([N+](=O)[O-])ccc1C)CC2 (stereo not shown) [Example 46, Ethyl[3-benzyl-8-(2-methyl-5-nitrobenzolsulfonyl)-2-oxo-1,4,8-triazaspiro[4,5]dec-1-yl]-acetate]",–,90,30,–,–,33
–,"CSCCC1NC2(CCN(C(=O)Nc3ccccc3)CC2)N(Cc2ccccc2C#N)C1=O (stereo not shown) [Example 224, 1-(2-Cyanobenzyl)-3-(2-methylsulfanylethyl)-2-oxo-1,4,8-triazaspiro[4,5]decan-8-carboxylic acid benzolamide]",–,37,30,–,–,38
–,"COc1ccccc1NC(=S)N1CCC2(CC1)NC(Cc1ccccc1)C(=O)N2Cc1ccccc1F (stereo not shown) [Example 108, 3-Benzyl-1-(2-fluorobenzyl)-2-oxo-1,4,8-triazaspiro[4,5]decan-8-thiocarboxylic acid (2-methoxy-benzol)amide]",–,86,86,–,–,31
–,"Cc1cccc(NC(=S)N2CCC3(CC2)NC(Cc2ccccc2)C(=O)N3Cc2ccccc2F)c1 (stereo not shown) [Example 166, 3-Benzyl-1-(2-fluorobenzyl)-2-oxo-1,4,8-triazaspiro[4,5]decan-8-thiocarboxylic acid m-tolylamide]",–,–,85,64,–,39
56,"CCCCN1C(=O)C(C(C)C)NC12CCN(C(=S)NC(C)C)CC2 (stereo not shown) [Example 107, 1-Butyl-3-isopropyl-2-oxo-1,4,8-triazaspiro[4,5]decan-8-thiocarboxylic acid isopropylamide]",–,–,–,28,–,–
–,"CSCCC1NC2(CCN(C(=O)Nc3cccc(C(C)=O)c3)CC2)N(Cc2ccccc2)C1=O (stereo not shown) [Example 214, 1-Benzyl-3-(2-methylsulfanylethyl)-2-oxo-1,4,8-triazaspiro[4,5]decan-8-carboxylic acid (3-acetylbenzol)amide]",–,51,40,–,–,36
–,"CSCCC1NC2(CCN(C(=O)Nc3ccc(Cl)c(C(F)(F)F)c3)CC2)N(Cc2ccccc2)C1=O (stereo not shown) [Example 211, 1-Benzyl-3-(2-methylsulfanylethyl)-2-oxo-1,4,8-triazaspiro[4,5]decan-8-carboxylic acid (4-chloro-3-trifluoromethylbenzol)amide]",–,45,85,–,–,40
–,"CSCCC1NC2(CCN(C(=S)Nc3ccccc3C)CC2)N(Cc2ccc3ccccc3c2)C1=O (stereo not shown) [Example 151, 3-(2-Methylsulfanylethyl)-1-naphthalin-2-ylmethyl-2-oxo-1,4,8-triazaspiro[4,5]decan-8-thiocarboxylic acid o-tolylamide]",–,–,84,64,–,42
–,"COc1cccc(NC(=O)N2CCC3(CC2)NC(CCSC)C(=O)N3Cc2cccc(C#N)c2)c1 (stereo not shown) [Example 236, 1-(3-Cyanobenzyl)-3-(2-methylsulfanylethyl)-2-oxo-1,4,8-triazaspiro[4,5]decan-8-carboxylic acid (3-methoxy-benzol)amide]",–,32,42,–,–,34
–,"CSCCC1NC2(CCN(C(=S)Nc3cccc(C(C)=O)c3)CC2)N(Cc2ccc3ccccc3c2)C1=O (stereo not shown) [Example 165, 3-(2-Methylsulfanylethyl)-1-naphthalin-2-ylmethyl-2-oxo-1,4,8-triazaspiro[4,5]decan-8-thiocarboxylic acid (3-acetylbenzol)amide]",–,42,64,–,–,48
–,"CCOC(=O)CN1C(=O)C(Cc2ccccc2)NC12CCN(S(=O)(=O)c1ccccc1S(C)(=O)=O)CC2 (stereo not shown) [Example 47, Ethyl[3-benzyl-8-(2-methansulfonylbenzolsulfonyl)-2-oxo-1,4,8-triazaspiro[4,5]dec-1-yl]-acetate]",–,71,31,–,–,47
–,"CSCCC1NC2(CCN(S(=O)(=O)c3ccc(F)cc3F)CC2)N(Cc2cc(C)cc(C)c2)C1=O (stereo not shown) [Example 42, 8-(2,4-Difluorobenzolsulfonyl)-1-(3,5-dimethylbenzyl)-3-(2-methylsulfanylethyl)-1,4,8-triazaspiro[4,5]decan-2-one]",48,–,56,–,–,–
50,"CS(=O)(=O)N1CCC2(CC1)NC(Cc1ccccc1)C(=O)N2Cc1ccccc1 (stereo not shown) [Example 246, 1,3-Dibenzyl-8-methansulfonyl-1,4,8-triazaspiro[4,5]decan-2-one]",–,–,–,–,–,–
–,"1,3-Dibenzyl-8-(4-methoxy-benzolsulfonyl)-1,4,8-triazaspiro[4,5]decan-2-one [Example 249]",80,–,–,–,5.46,–
–,"1,3-Dibenzyl-8-(4-chlorobenzolsulfonyl)-1,4,8-triazaspiro[4,5]decan-2-one [Example 248]",87,–,–,–,5.92,–
–,"CCCCN1C(=O)C(C(C)C)NC12CCN(C(=S)NCc1ccc(Cl)cc1)CC2 (stereo not shown) [Example 150, 1-Butyl-3-isopropyl-2-oxo-1,4,8-triazaspiro[4,5]decan-8-thiocarboxylic acid 4-chlorobenzylamide]",–,–,73,51,–,30
–,"C=CCN1C(=O)C(C(C)C)NC12CCN(C(=O)Nc1ccc(OC(F)(F)F)cc1)CC2 (stereo not shown) [Example 220, 1-Allyl-3-isopropyl-2-oxo-1,4,8-triazaspiro[4,5]decan-8-carboxylic acid (4-trifluoromethoxy-benzol)amide]",–,39,44,–,–,39
–,"CCOc1ccc(NC(=O)N2CCC3(CC2)NC(CCSC)C(=O)N3Cc2ccccc2)cc1 (stereo not shown) [Example 213, 1-Benzyl-3-(2-methylsulfanylethyl)-2-oxo-1,4,8-triazaspiro[4,5]decan-8-carboxylic acid (4-ethoxy-benzol)amide]",–,39,41,–,–,37
–,"CCCCN1C(=O)C(CCSC)NC12CCN(C(=O)NCc1ccc(Cl)c(Cl)c1)CC2 (stereo not shown) [Example 219, 1-Butyl-3-(2-methylsulfanylethyl)-2-oxo-1,4,8-triazaspiro[4,5]decan-8-carboxylic acid 3,4-dichlorobenzylamide]",–,–,70,37,–,42
–,"CCCCS(=O)(=O)N1CCC2(CC1)NCC(=O)N2Cc1ccc(C(=O)OC)cc1 [Example 53, Methyl 4-[8-(butan-1-sulfonyl)-2-oxo-1,4,8-triazaspiro[4,5]dec-1-ylmethyl]-benzoate]",–,–,31,45,–,30

Compound,inhibition at 10 µM (human CB2 receptor) [%],"Inhibition CB2 10 μM, % inhibition (human CB2 receptor) [%]","Uptake_5-HT, rat, 1 μM, % inhibition (5-HT transporter) [%]",BTX Inhibition [1],inhibition at 1 µM (5-HT transporter) [%],pKi (human CB2 receptor),"Uptake (NA), rat, 10 μM, % inhibition (NA transporter) [%]"
"O=C1C(Cc2ccccc2)NC2(CCN(S(=O)(=O)c3cc(Cl)sc3Cl)CC2)N1Cc1ccccc1 (stereo not shown) [Example 20, 1,3-Dibenzyl-8-(2,5-dichlorothiophen-3-sulfonyl)-1,4,8-triazaspiro[4,5]decan-2-one]",66,–,–,54,81,–,–
